The text below walks through data of patent US20230065562A1, “DUAL CONTROLS FOR THERAPEUTIC CELL ACTIVATION OR ELIMINATION” (Bellicum Pharmaceuticals, Inc., priority 2015, published 2023).

Where only a bound is given, the exact number is not on record here.

The assay concerns iCasp9-ΔCD19-transduced MSCs. The experiment in a line: In vivo killing studies of iCasp9-ΔCD19 MSCs in murine model. Further details: species or system SCID mice. The protocol: All mouse experiments were performed in accordance with the Baylor College of Medicine animal husbandry guidelines. To assess the persistence of modified MSCs in vivo, a SCID mouse model was used in conjunction with an in vivo imaging system. MSCs were transduced with retroviruses coding for the enhanced green fluorescent protein-firefly luciferase (eGFP-FFLuc) gene alone or together with the iCasp9-ΔCD19 gene. Cells were sorted for eGFP positivity by fluorescence activated cell sorting using a MoFlo flow cytometer (Beckman Coulter, Fullerton, Calif.). Doubly transduced cells were also stained with PE-conjugated anti-CD19 and sorted for PE-positivity. SCID mice (8-10 weeks old) were injected subcutaneously with 5×10^5 MSCs with and without iCasp9-ΔCD19 in opposite flanks. […] For in vivo imaging of MSCs expressing eGFP-FFLuc, mice were injected intraperitoneally with D-luciferin (150 mg/kg) and analyzed using the Xenogen-IVIS Imaging System. Total luminescence (a measurement proportional to the total labeled MSCs deposited) at each time point was calculated by automatically defining regions-of-interest (ROIs) over the MSC implantation sites. These ROIs included all areas with luminescence signals at least 5% above background. Total photon counts were integrated for each ROI and an average value calculated. […]

Consider `CC[C@H](C(=O)N1CCCC[C@H]1C(=O)O[C@H](CCc1ccc(OC)c(OC)c1)c1cccc(OCC(=O)NCC(CNC(=O)COc2cccc([C@@H](CCc3ccc(OC)c(OC)c3)OC(=O)[C@@H]3CCCCN3C(=O)[C@@H](CC)c3cc(OC)c(OC)c(OC)c3)c2)CN(C)C)c1)c1cc(OC)c(OC)c(OC)c1` [AP20187], for which, under “qPCR iCasp9/eGFP copy ratio”, the “proportion of surviving iCasp9-positive cells after one week” value was 0.7%. For the same compound, for the setting “two i.p. injections of 50 μg CID 24 h apart”, the “killing / depletion of iCasp9-positive cells in vivo” value is reported as > 99%.
